From patent publication US4308251A, “Controlled release formulations of orally-active medicaments” (Boots Pharmaceuticals, Inc., priority 1980, dated 1981)

How the values were obtained:
[1] = test system: patients with pain (chronic bursitis, knee injury); type: in vivo, human
From the text: patient two is a housewife who suffered a painful right shoulder for two years. Consultants believed this condition was a result of chronic bursitis.
patient three is a person who is employed full time in an accounting department of a small company. […] While skating they fell, causing a partial tear of the medial collateral ligament and medial meniscus of the left knee. Support wrappings and acetaminophen were tried. […] This dosage regimen was maintained throughout the patient's convalescence.
patient one sustained a traumatic injury to the medial portion of their right knee during a basketball game.

patients taking aspirin = details: background statement; cited from earlier work
[2] = Patient No. 1, aspirin as regularly prescribed

| Compound | pain relief ([1]; Patient No. 2, regular acetaminophen) | effect on shoulder pain [1, 2] | side effects [1, 2] | patients considered treatment failures because of side effects (patients taking aspirin) |
| --- | --- | --- | --- | --- |
| CC(=O)Nc1ccc(O)cc1 [acetaminophen] | only partial and temporary |  |  |  |
| CC(=O)Oc1ccccc1C(=O)O [aspirin, acetylsalicylic acid] |  | ineffective | epigastric discomfort | Approximately sixty |
